Inconclusive results and toxic doses are left out.
Test system: L1210 leukemia ip in BDF1 mice, survival T/C
Assay: NCI In Vivo Anticancer Drug Screen. Data for tumor model L1210 Leukemia (intraperitoneal) in B6D2F1 (BDF1) mice
Conditions: higher = longer survival
In short: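 Each compound was tested against a transplantable tumor grown in mice. The endpoint was survival, with treated animals benchmarked against vehicle controls as a simple ratio.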

[1] = endpoint: mean survival time, dose: 100.0 mg/kg/injection, schedule: Q04DX003 (ip), vehicle: Klucel (hydroxypropylcellulose) (HPC)
[2] = endpoint: mean survival time, dose: 200.0 mg/kg/injection, schedule: Q04DX003 (ip), vehicle: Klucel (hydroxypropylcellulose) (HPC)
[3] = endpoint: mean survival time, dose: 400.0 mg/kg/injection, schedule: Q04DX003 (ip), vehicle: Klucel (hydroxypropylcellulose) (HPC)
[4] = endpoint: mean survival time, dose: 100.0 mg/kg/injection, schedule: Q04DX002 (ip), vehicle: Klucel (hydroxypropylcellulose) (HPC)
[5] = endpoint: mean survival time, dose: 200.0 mg/kg/injection, schedule: Q04DX002 (ip), vehicle: Klucel (hydroxypropylcellulose) (HPC)
[6] = endpoint: mean survival time, dose: 400.0 mg/kg/injection, schedule: Q04DX002 (ip), vehicle: Klucel (hydroxypropylcellulose) (HPC)
[7] = endpoint: mean survival time, dose: 100.0 mg/kg/injection, schedule: Q01DX001 (ip), vehicle: saline
[8] = endpoint: mean survival time, dose: 200.0 mg/kg/injection, schedule: Q01DX001 (ip), vehicle: saline
[9] = endpoint: mean survival time, dose: 400.0 mg/kg/injection, schedule: Q01DX001 (ip), vehicle: saline

`CCCOP(=O)(OCCC)C(OC(=O)C(C)(C)SC(=S)CCC)=C(C)C` was tested, and the T/C (endpoint: mean survival time, dose: 100.0 mg/kg/injection, schedule: Q04DX003 (ip), vehicle: saline with Tween-80) was 97 % of control, the T/C (endpoint: mean survival time, dose: 200.0 mg/kg/injection, schedule: Q04DX003 (ip), vehicle: saline with Tween-80) was 100 % of control and the T/C (endpoint: mean survival time, dose: 400.0 mg/kg/injection, schedule: Q04DX003 (ip), vehicle: saline with Tween-80) was 94 % of control.

`Cc1ccc(S(=O)(=O)N/N=C\C(O)C(O)C(O)CO)cc1` (stereo not given) was tested, and the T/C (endpoint: mean survival time, dose: 100.0 mg/kg/injection, schedule: Q04DX002 (ip), vehicle: saline with Tween-80) was 97 % of control, the T/C (endpoint: mean survival time, dose: 200.0 mg/kg/injection, schedule: Q04DX002 (ip), vehicle: saline with Tween-80) was 94 % of control and the T/C (endpoint: mean survival time, dose: 400.0 mg/kg/injection, schedule: Q04DX002 (ip), vehicle: saline with Tween-80) was 97 % of control.

With `CCOC(=O)c1ccc(N=NN(C)CC(C)C)cc1` the T/C (endpoint: mean survival time, dose: 100.0 mg/kg/injection, schedule: Q01DX001 (ip), vehicle: Klucel (hydroxypropylcellulose) (HPC)) was 107 % of control, the T/C (endpoint: mean survival time, dose: 100.0 mg/kg/injection, schedule: Q01DX009 (ip), vehicle: Klucel (hydroxypropylcellulose) (HPC)) was 112 % of control and the T/C [1] was 105 % of control. For the same compound, the T/C (endpoint: mean survival time, dose: 200.0 mg/kg/injection, schedule: Q01DX001 (ip), vehicle: Klucel (hydroxypropylcellulose) (HPC)) was 104 % of control, the T/C (endpoint: mean survival time, dose: 200.0 mg/kg/injection, schedule: Q01DX009 (ip), vehicle: Klucel (hydroxypropylcellulose) (HPC)) was 122 % of control and the T/C [2] was 107 % of control. The T/C (endpoint: mean survival time, dose: 400.0 mg/kg/injection, schedule: Q01DX001 (ip), vehicle: Klucel (hydroxypropylcellulose) (HPC)) was 107 % of control and the T/C [3] was 108 % of control.

In the case of `Oc1ccc2ccc(O)cc2c1`, the T/C [4] is reported as 105 % of control, the T/C [5] is reported as 108 % of control and the T/C [6] is reported as 102 % of control.

For `CC1C(=O)C=C2CCCC(C)(C)C2(C)C1(O)CCc1ccoc1` (stereo not given), the T/C [7] was 103 % of control, the T/C [8] was 97 % of control and the T/C [9] was 107 % of control.

`Nc1ccc(S(=O)(=O)Nc2ccc([N+](=O)[O-])cn2)cc1` was tested, and the T/C [7] was 101 % of control, the T/C [8] was 104 % of control and the T/C [9] was 98 % of control.

`O=C1c2ccccc2C(=O)c2c(NCCNCCO)ccc(NCCNCCO)c21` was tested, and the T/C (endpoint: mean survival time, dose: 2.0 mg/kg/injection, schedule: Q01DX009 (ip), vehicle: Klucel (hydroxypropylcellulose) (HPC)) was 204 % of control, the T/C (endpoint: mean survival time, dose: 2.0 mg/kg/injection, schedule: Q01DX009 (ip), vehicle: saline with Tween-80) was 162 % of control and the T/C (endpoint: mean survival time, dose: 2.0 mg/kg/injection, schedule: Q01DX009 (ip), vehicle: water) was 196 % of control. For the same compound, the T/C (endpoint: mean survival time, dose: 4.0 mg/kg/injection, schedule: Q01DX009 (ip), vehicle: Klucel (hydroxypropylcellulose) (HPC)) was 306 % of control, the T/C (endpoint: mean survival time, dose: 4.0 mg/kg/injection, schedule: Q01DX009 (ip), vehicle: saline with Tween-80) was 153 % of control and the T/C (endpoint: mean survival time, dose: 4.0 mg/kg/injection, schedule: Q01DX009 (ip), vehicle: water) was 159 % of control. For the same compound, the T/C (endpoint: mean survival time, dose: 8.0 mg/kg/injection, schedule: Q01DX009 (ip), vehicle: Klucel (hydroxypropylcellulose) (HPC)) was 491 % of control, the T/C (endpoint: mean survival time, dose: 8.0 mg/kg/injection, schedule: Q01DX009 (ip), vehicle: saline with Tween-80) was 220 % of control and the T/C (endpoint: mean survival time, dose: 8.0 mg/kg/injection, schedule: Q01DX009 (ip), vehicle: water) was 498 % of control. The T/C (endpoint: mean survival time, dose: 16.0 mg/kg/injection, schedule: Q01DX009 (ip), vehicle: Klucel (hydroxypropylcellulose) (HPC)) was 347 % of control, the T/C (endpoint: mean survival time, dose: 16.0 mg/kg/injection, schedule: Q01DX009 (ip), vehicle: saline with Tween-80) was 253 % of control and the T/C (endpoint: mean survival time, dose: 16.0 mg/kg/injection, schedule: Q01DX009 (ip), vehicle: water) was 396 % of control. The T/C (endpoint: mean survival time, dose: 32.0 mg/kg/injection, schedule: Q01DX009 (ip), vehicle: Klucel (hydroxypropylcellulose) (HPC)) was 118 % of control, the T/C (endpoint: mean survival time, dose: 32.0 mg/kg/injection, schedule: Q01DX009 (ip), vehicle: saline with Tween-80) was 89 % of control and the T/C (endpoint: mean survival time, dose: 32.0 mg/kg/injection, schedule: Q01DX009 (ip), vehicle: water) was 93 % of control. For the same compound, the T/C (endpoint: median survival time, dose: 8.0 mg/kg/injection, schedule: Q01DX005 (oral), vehicle: Klucel (hydroxypropylcellulose) (HPC)) was 90 % of control, the T/C (endpoint: median survival time, dose: 8.0 mg/kg/injection, schedule: Q01DX005 (oral), vehicle: water) was 101 % of control and the T/C (endpoint: median survival time, dose: 16.0 mg/kg/injection, schedule: Q01DX005 (oral), vehicle: Klucel (hydroxypropylcellulose) (HPC)) was 98 % of control. For the same compound, the T/C (endpoint: median survival time, dose: 16.0 mg/kg/injection, schedule: Q01DX005 (oral), vehicle: water) was 101 % of control, the T/C (endpoint: median survival time, dose: 32.0 mg/kg/injection, schedule: Q01DX005 (oral), vehicle: Klucel (hydroxypropylcellulose) (HPC)) was 94 % of control and the T/C (endpoint: median survival time, dose: 32.0 mg/kg/injection, schedule: Q01DX005 (oral), vehicle: water) was 101 % of control. For the same compound, the T/C (endpoint: median survival time, dose: 64.0 mg/kg/injection, schedule: Q01DX005 (oral), vehicle: Klucel (hydroxypropylcellulose) (HPC)) was 100 % of control, the T/C (endpoint: median survival time, dose: 64.0 mg/kg/injection, schedule: Q01DX005 (oral), vehicle: water) was 97 % of control and the T/C (endpoint: median survival time, dose: 128.0 mg/kg/injection, schedule: Q01DX005 (oral), vehicle: Klucel (hydroxypropylcellulose) (HPC)) was 94 % of control. For the same compound, the T/C (endpoint: median survival time, dose: 128.0 mg/kg/injection, schedule: Q01DX005 (oral), vehicle: water) was 100 % of control, the T/C (endpoint: median survival time, dose: 256.0 mg/kg/injection, schedule: Q01DX005 (oral), vehicle: Klucel (hydroxypropylcellulose) (HPC)) was 98 % of control and the T/C (endpoint: median survival time, dose: 256.0 mg/kg/injection, schedule: Q01DX005 (oral), vehicle: water) was 102 % of control. For the same compound, the T/C (endpoint: median survival time, dose: 512.0 mg/kg/injection, schedule: Q01DX005 (oral), vehicle: Klucel (hydroxypropylcellulose) (HPC)) was 103 % of control and the T/C (endpoint: median survival time, dose: 512.0 mg/kg/injection, schedule: Q01DX005 (oral), vehicle: water) was 106 % of control.

`O=C(O)c1cccc(S(=O)(=O)O)c1` was tested, and the T/C [7] was 105 % of control, the T/C [8] was 98 % of control and the T/C [9] was 102 % of control.

In the case of `c1ccc(C2=NOC(c3ccccc3)C2)cc1` (stereo not given), the T/C (endpoint: mean survival time, dose: 75.0 mg/kg/injection, schedule: Q01DX009 (ip), vehicle: Klucel (hydroxypropylcellulose) (HPC)) is reported as 105 % of control, the T/C (endpoint: mean survival time, dose: 75.0 mg/kg/injection, schedule: Q04DX003 (ip), vehicle: Klucel (hydroxypropylcellulose) (HPC)) is reported as 95 % of control and the T/C (endpoint: mean survival time, dose: 150.0 mg/kg/injection, schedule: Q01DX009 (ip), vehicle: Klucel (hydroxypropylcellulose) (HPC)) is reported as 105 % of control. For the same compound, the T/C (endpoint: mean survival time, dose: 150.0 mg/kg/injection, schedule: Q04DX003 (ip), vehicle: Klucel (hydroxypropylcellulose) (HPC)) was 100 % of control, the T/C (endpoint: mean survival time, dose: 300.0 mg/kg/injection, schedule: Q01DX009 (ip), vehicle: Klucel (hydroxypropylcellulose) (HPC)) was 100 % of control and the T/C (endpoint: mean survival time, dose: 300.0 mg/kg/injection, schedule: Q04DX003 (ip), vehicle: Klucel (hydroxypropylcellulose) (HPC)) was 95 % of control.

For `O=C(O)C(Cc1ccc(O)cc1)NC(=O)C(CSC(c1ccccc1)(c1ccccc1)c1ccccc1)NC(c1ccccc1)(c1ccccc1)c1ccccc1` (stereo not given), the T/C (endpoint: mean survival time, dose: 50.0 mg/kg/injection, schedule: Q01DX009 (ip), vehicle: saline) was 92 % of control, the T/C (endpoint: mean survival time, dose: 100.0 mg/kg/injection, schedule: Q01DX009 (ip), vehicle: saline) was 95 % of control and the T/C (endpoint: mean survival time, dose: 200.0 mg/kg/injection, schedule: Q01DX009 (ip), vehicle: saline) was 100 % of control. For the same compound, the T/C (endpoint: mean survival time, dose: 400.0 mg/kg/injection, schedule: Q01DX009 (ip), vehicle: saline) was 95 % of control.

With `Cc1ccc(NN)c(I)c1` the T/C (endpoint: mean survival time, dose: 100.0 mg/kg/injection, schedule: Q01DX001 (ip), vehicle: saline with Tween-80) was 97 % of control, the T/C (endpoint: mean survival time, dose: 200.0 mg/kg/injection, schedule: Q01DX001 (ip), vehicle: saline with Tween-80) was 93 % of control and the T/C (endpoint: mean survival time, dose: 400.0 mg/kg/injection, schedule: Q01DX001 (ip), vehicle: saline with Tween-80) was 95 % of control.

For `Cc1ccc2c(c1)Sc1ccc3ccccc3c1N2`, the T/C (endpoint: mean survival time, dose: 100.0 mg/kg/injection, schedule: Q01DX009 (ip), vehicle: saline sonified) was 104 % of control, the T/C [1] was 97 % of control and the T/C (endpoint: mean survival time, dose: 200.0 mg/kg/injection, schedule: Q01DX009 (ip), vehicle: saline sonified) was 88 % of control. For the same compound, the T/C [2] was 89 % of control, the T/C (endpoint: mean survival time, dose: 400.0 mg/kg/injection, schedule: Q01DX009 (ip), vehicle: saline sonified) was 100 % of control and the T/C [3] was 92 % of control.

For `CCCC(=O)N(CC(C)C)CC(C)C`, the T/C [1] was 101 % of control, the T/C [2] was 95 % of control and the T/C [3] was 97 % of control.

In the case of `C[N+](C)(C)Cc1c[nH]c2ccsc12`, the T/C (endpoint: mean survival time, dose: 12.5 mg/kg/injection, schedule: Q01DX001 (ip), vehicle: saline with Tween-80) is reported as 107 % of control.

`CC(C)CC([NH-])C(=O)[O-].O=C(O)C(=O)O.[Co+3].[NH-]CCN(CC[NH-])CC[NH-]` was tested, and the T/C (endpoint: mean survival time, dose: 50.0 mg/kg/injection, schedule: Q01DX001 (ip), vehicle: other) was 92 % of control, the T/C (endpoint: mean survival time, dose: 100.0 mg/kg/injection, schedule: Q01DX001 (ip), vehicle: other) was 100 % of control and the T/C (endpoint: mean survival time, dose: 200.0 mg/kg/injection, schedule: Q01DX001 (ip), vehicle: other) was 94 % of control. For the same compound, the T/C (endpoint: mean survival time, dose: 400.0 mg/kg/injection, schedule: Q01DX001 (ip), vehicle: other) was 86 % of control.

In the case of `CCCCCCCCCCCC(=O)NC(=S)Nc1cccc(O)c1`, the T/C [4] is reported as 104 % of control, the T/C [5] is reported as 87 % of control and the T/C [6] is reported as 104 % of control.

Source: PubChem BioAssay AID248 (DTP/NCI, 2004)
